Experimental data taken from patent publication US7939537B2, “HIV integrase inhibitors” (Istituto Di Ricerche Di Biologia Molecolare P. Angeletti …, priority 2006, dated 2011).

test system: HIV; assay: Assay for inhibition of HIV replication (spread assay; acute HIV infection of T-lymphoid cells); assay type: cell-based; settings: Human immunodeficiency virus 1, tested up to 1 micromolar
Description: Assay for Inhibition of HIV Replication
Assays for the inhibition of acute HIV infection of T-lymphoid cells were conducted in accordance with Vacca, J. P. et al., Proc. Natl. Acad. Sci. USA 1994, 91: 4096. […] The compounds of Examples 6, 8, 9, 14, 15, 21-23 and 29-35 were also tested in the spread assay up to 1 micromolar, but specific IC95 values were not obtained; i.e., the IC95 values for these compounds are greater than 1 micromolar.

Structure (SMILES) | IC95 [µM]
CCN(C(=O)c1ccccn1)c1cccn2c(=O)c(O)c(C(=O)NCc3ccc(F)cc3)nc12 [Example 16, 9-[ethyl(pyridin-2-ylcarbonyl)amino]-N-(4-fluorobenzyl)-3-hydroxy-4-oxo-4H-pyrido[1,2-a]pyrimidine-2-carboxamide] | < 1
CN(C)Cc1cccn2c(=O)c(O)c(C(=O)NCc3ccc(F)cc3)nc12 [Example 30, 9-[(dimethylamino)methyl]-N-(4-fluorobenzyl)-3-hydroxy-4-oxo-4H-pyrido[1,2-a]pyrimidine-2-carboxamide] | > 1
CCCN(C(=O)C(=O)N(C)C)c1cccn2c(=O)c(O)c(C(=O)NCc3ccc(F)cc3)nc12 [Example 17, N-(2-{[(4-fluorobenzyl)amino]carbonyl}-3-hydroxy-4-oxo-4H-pyrido[1,2-a]pyrimidin-9-yl)-N-propyl-N′,N′-dimethylethanediamide] | < 1
CCNc1cccn2c(=O)c(O)c(C(=O)NCc3ccc(F)cc3)nc12 [Example 10, 9-[ethylamino]-N-(4-fluorobenzyl)-3-hydroxy-4-oxo-4H-pyrido[1,2-a]pyrimidine-2-carboxamide] | < 1
O=C(Nc1cccn2c(=O)c(O)c(C(=O)NCc3ccc(F)cc3)nc12)c1ccccc1 [Example 14, 9-[benzoylamino]-N-(4-fluorobenzyl)-3-hydroxy-4-oxo-4H-pyrido[1,2-a]pyrimidine-2-carboxamide] | > 1
CCN(C(=O)c1ccno1)c1cccn2c(=O)c(O)c(C(=O)NCc3ccc(F)cc3)nc12 [Example 25, 9-[ethyl(isoxazol-5-ylcarbonyl)amino]-N-(4-fluorobenzyl)-3-hydroxy-4-oxo-4H-pyrido[1,2-a]pyrimidine-2-carboxamide] | < 1
O=C(NCc1ccc(F)cc1)c1nc2ccc(-c3ccccc3N3CCOCC3)cn2c(=O)c1O [Example 5] | < 1
CCN(CC)C(=O)C(=O)N(CC)c1cccn2c(=O)c(O)c(C(=O)NCc3ccc(F)cc3)nc12 [Example 3, N-(4-fluorobenzyl)-3-hydroxy-9-[(N,N,N′-triethyl)-ethanediamide]-4-oxo-4H-pyrido[1,2-a]pyrimidine-2-carboxamide] | < 1
CC(=O)N1CCN(Cc2cccn3c(=O)c(O)c(C(=O)NCc4ccc(F)cc4)nc23)CC1 [Example 33, 9-[(4-acetylpiperazin-1-yl)methyl]-N-(4-fluorobenzyl)-3-hydroxy-4-oxo-4H-pyrido[1,2-a]pyrimidine-2-carboxamide] | > 1
CCN(C(=O)CN(C)C)c1cccn2c(=O)c(O)c(C(=O)NCc3ccc(F)cc3)nc12 [Example 20, 9-[(N,N-dimethylglycyl)(ethyl)amino]-N-(4-fluorobenzyl)-3-hydroxy-4-oxo-4H-pyrido[1,2-a]pyrimidine-2-carboxamide] | < 1
O=C(NCc1cccn2c(=O)c(O)c(C(=O)NCc3ccc(F)cc3)nc12)c1ccccc1 [Example 34, 9-[(benzoylamino)methyl]-N-(4-fluorobenzyl)-3-hydroxy-4-oxo-4H-pyrido[1,2-a]pyrimidine-2-carboxamide] | > 1
CCN(C(=O)C(=O)N1CCN(C)CC1)c1cccn2c(=O)c(O)c(C(=O)NCc3ccc(F)cc3)nc12 [Example 28, 4-[[ethyl(2-{[(4-fluorobenzyl)amino]carbonyl}-3-hydroxy-4-oxo-4H-pyrido[1,2-a]pyrimidin-9-yl)amino](oxo)acetyl]-1-methylpiperazine] | < 1
CCN(CC)CC(=O)N(CC)c1cccn2c(=O)c(O)c(C(=O)NCc3ccc(F)cc3)nc12 [Example 21, 9-[(N,N-diethylglycyl)(ethyl)amino]-N-(4-fluorobenzyl)-3-hydroxy-4-oxo-4H-pyrido[1,2-a]pyrimidine-2-carboxamide] | > 1
O=C(NCc1ccc(F)cc1)c1nc2c(CN3CCOCC3)cccn2c(=O)c1O [Example 32, N-(4-fluorobenzyl)-3-hydroxy-9-(morpholin-4-ylmethyl)-4-oxo-4H-pyrido[1,2-a]pyrimidine-2-carboxamide] | > 1
CC(C)CN(C(=O)C(=O)N(C)C)c1cccn2c(=O)c(O)c(C(=O)NCc3ccc(F)cc3)nc12 [Example 18, N-(2-{[(4-fluorobenzyl)amino]carbonyl}-3-hydroxy-4-oxo-4H-pyrido[1,2-a]pyrimidin-9-yl)-N-isobutyl-N′,N′-dimethylethanediamide] | < 1
CC(=O)N(C)c1cccn2c(=O)c(O)c(C(=O)NCc3ccc(F)cc3)nc12 [Example 6, 9-[acetyl(methyl)amino]-N-(4-fluorobenzyl)-3-hydroxy-4-oxo-4H-pyrido[1,2-a]pyrimidine-2-carboxamide] | > 1
CN(C)C(=O)C(=O)N(C)c1cccn2c(=O)c(O)c(C(=O)NCc3ccc(F)cc3)nc12 [Example 11, N-(2-{[(4-fluorobenzyl)amino]carbonyl}-3-hydroxy-4-oxo-4H-pyrido[1,2-a]pyrimidin-9-yl)-N,N′,N′-trimethylethanediamide] | < 1
O=C(NCc1ccc(F)cc1)c1nc2ccccn2c(=O)c1O [Example 1, N-(4-Fluorobenzyl)-3-hydroxy-4-oxo-4H-pyrido[1,2-a]pyrimidine-2-carboxamide] | < 1
CN(C)c1cccn2c(=O)c(O)c(C(=O)NCc3ccc(F)cc3)nc12 [Example 9, 9-[dimethylamino]-N-(4-fluorobenzyl)-3-hydroxy-4-oxo-4H-pyrido[1,2-a]pyrimidine-2-carboxamide] | > 1
CCN(C(=O)c1cscn1)c1cccn2c(=O)c(O)c(C(=O)NCc3ccc(F)cc3)nc12 [Example 24, 9-[ethyl(1,3-thiazol-4-ylcarbonyl)amino]-N-(4-fluorobenzyl)-3-hydroxy-4-oxo-4H-pyrido[1,2-a]pyrimidine-2-carboxamide] | < 1
O=C(Nc1cccn2c(=O)c(O)c(C(=O)NCc3ccc(F)cc3)nc12)OCc1ccccc1 [Example 13, benzyl (2-{[(4-fluorobenzyl)amino]carbonyl}-3-hydroxy-4-oxo-4H-pyrido[1,2-a]pyrimidin-9-yl)carbamate] | < 1
CCN(C(=O)c1nnc(C)o1)c1cccn2c(=O)c(O)c(C(=O)NCc3ccc(F)cc3)nc12 [Example 26, 9-{ethyl[(5-methyl-1,3,4-oxadiazol-2-yl)carbonyl]amino}-N-(4-fluorobenzyl)-3-hydroxy-4-oxo-4H-pyrido[1,2-a]pyrimidine-2-carboxamide] | < 1
CCN(C(=O)CN1CCN(C)CC1)c1cccn2c(=O)c(O)c(C(=O)NCc3ccc(F)cc3)nc12 [Example 23, 9-{ethyl[(4-methylpiperazin-1-yl)acetyl]amino}-N-(4-fluorobenzyl)-3-hydroxy-4-oxo-4H-pyrido[1,2-a]pyrimidine-2-carboxamide] | > 1
CN(C(=O)c1ccccc1)c1cccn2c(=O)c(O)c(C(=O)NCc3ccc(F)cc3)nc12 [Example 7, 9-[benzoyl(methyl)amino]-N-(4-fluorobenzyl)-3-hydroxy-4-oxo-4H-pyrido[1,2-a]pyrimidine-2-carboxamide] | < 1
CN(C(=O)CS(C)(=O)=O)c1cccn2c(=O)c(O)c(C(=O)NCc3ccc(F)cc3)nc12 [Example 2, N-(4-fluorobenzyl)-3-hydroxy-9-{methyl[(methylsulfonyl)acetyl]amino}-4-oxo-4H-pyrido[1,2-a]pyrimidine-2-carboxamide] | < 1
CNc1cccn2c(=O)c(O)c(C(=O)NCc3ccc(F)cc3)nc12 [Example 8, 9-[methylamino]-N-(4-fluorobenzyl)-3-hydroxy-4-oxo-4H-pyrido[1,2-a]pyrimidine-2-carboxamide] | > 1
